Biological target: T1, renin (Homo sapiens, UniProt P00797)
T1 sequence (P00797 67-406): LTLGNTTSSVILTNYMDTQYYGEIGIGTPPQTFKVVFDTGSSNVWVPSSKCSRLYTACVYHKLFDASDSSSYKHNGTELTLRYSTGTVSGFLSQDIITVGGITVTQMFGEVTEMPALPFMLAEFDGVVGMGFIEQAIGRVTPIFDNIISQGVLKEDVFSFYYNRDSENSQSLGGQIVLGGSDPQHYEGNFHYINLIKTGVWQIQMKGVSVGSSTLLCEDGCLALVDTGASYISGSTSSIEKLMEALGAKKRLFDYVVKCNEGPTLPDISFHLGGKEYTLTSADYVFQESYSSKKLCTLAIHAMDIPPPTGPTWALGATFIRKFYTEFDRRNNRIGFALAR
Experiment: in vitro renin inhibitory activity, radioimmunoassay for angiotensin I
Format: biochemical
Details: not given
Protocol: The effectiveness of the aforementioned compounds is determined by a test for in vitro renin inhibitory activity. This activity is determined by a standard radioimmunoassay for angiotensin I. In this assay the enzyme, renin, incubated for two hours at 37° in the presence of a substrate, angiotensinogen, generates the product, angiotensin I. Test compounds are added to the incubation mixture.

Row | SMILES | IC50
1 | CCC(C)CNC(=O)C[C@H](O)[C@H](CC(C)C)NC(=O)[C@H](CCCCNP(=O)(Oc1ccccc1)Oc1ccccc1)NC(=O)C(Cc1cccc2ccccc12)Cc1cccc2ccccc12 (stereo partly shown) | 7400 nM
2 | CCC(C)CNC(=O)C[C@H](O)[C@H](CC(C)C)NC(=O)[C@H](CCCCNC(=NC#N)SC)NC(=O)C(Cc1cccc2ccccc12)Cc1cccc2ccccc12 (stereo partly shown) | 19 nM
3 | CC[C@H](C)CNC(=O)C[C@H](O)[C@H](CC(C)C)NC(=O)[C@H](CCCCn1cccc1)NC(=O)C(Cc1cccc2ccccc12)Cc1cccc2ccccc12 | 87 nM
4 | CC(C)C[C@H](NC(=O)C[C@H](O)[C@H](CC(C)C)NC(=O)[C@H](CCCCNC(=N)N[N+](=O)[O-])NC(=O)C(Cc1cccc2ccccc12)Cc1cccc2ccccc12)C(=O)NCc1ccccc1 | 15 nM
5 | CNC(=S)NCCCC[C@H](NC(=O)C(Cc1cccc2ccccc12)Cc1cccc2ccccc12)C(=O)N[C@@H](CC(C)C)[C@@H](O)CC(=O)N[C@@H](CC(C)C)C(=O)NCc1ccccc1 | 60 nM
6 | CCC(C)CNC(=O)C[C@H](O)[C@H](CC(C)C)NC(=O)C(CCCCCNC(=N)N[N+](=O)[O-])NC(=O)C(Cc1cccc2ccccc12)Cc1cccc2ccccc12 (stereo partly shown) | 26 nM
7 | CC(C)C[C@H](NC(=O)C[C@H](O)[C@H](CC(C)C)NC(=O)C(CCCCCNC(=N)N[N+](=O)[O-])NC(=O)C(Cc1cccc2ccccc12)Cc1cccc2ccccc12)C(=O)NCc1ccccc1 (stereo partly shown) | 110 nM
8 | CC[C@H](C)CNC(=O)C[C@H](O)[C@H](CC(C)C)NC(=O)C(CCCCCCNC(=S)NC)NC(=O)C(Cc1cccc2ccccc12)Cc1cccc2ccccc12 (stereo partly shown) | 45 nM
9 | CC[C@H](C)CNC(=O)C[C@H](O)[C@H](CC(C)C)NC(=O)C(CC#CCNC(=O)OCc1ccccc1)NC(=O)C(Cc1cccc2ccccc12)Cc1cccc2ccccc12 (stereo partly shown) | 150 nM
10 | CC[C@H](C)CNC(=O)C[C@H](O)[C@H](CC(C)C)NC(=O)C(NC(=O)C(Cc1cccc2ccccc12)Cc1cccc2ccccc12)C(=O)OC (stereo partly shown) | 23 nM
11 | CCC(C)CNC(=O)C[C@H](O)[C@H](CC(C)C)NC(=O)C(NC(=O)C(CC(=O)N1CCOCC1)Cc1cccc2ccccc12)C(=O)OC (stereo partly shown) | 98 nM
12 | CNC(=S)NCCCC[C@H](NC(=O)C(Cc1ccccc1)CS(=O)(=O)C(C)(C)C)C(=O)N[C@@H](CC1CCCCC1)[C@@H](O)CC(=O)NCCN1CCOCC1 (stereo partly shown) | 27 nM
13 | CCC(C)CNC(=O)C[C@H](O)[C@H](CC(C)C)NC(=O)C(C/C=C/CNC(=S)NC)NC(=O)C(Cc1cccc2ccccc12)Cc1cccc2ccccc12 (stereo partly shown) | 41 nM
14 | CC[C@H](C)CNC(=O)C[C@H](O)[C@H](CC(C)C)NC(=O)C(NC(=O)[C@H](Cc1ccccc1)NC(=O)OC(C)(C)C)C(=O)N1CCCC1 (stereo partly shown) | 400 nM
15 | CCC(C)CNC(=O)C[C@H](O)[C@H](CC(C)C)NC(=O)[C@H](CC#N)NC(=O)[C@H](Cc1ccccc1)NC(=O)OC(C)(C)C (stereo partly shown) | 260 nM

Same assay, conditions: at 10^-6 molar concentration; read-out: percent inhibition of renin activity

Row | inhibition at 1 µM | SMILES
16 | 28% | CC[C@H](C)CNC(=O)C[C@H](O)[C@H](CC(C)C)NC(=O)C(CCCCCCNC(=O)OCc1ccccc1)NC(=O)C(Cc1cccc2ccccc12)Cc1cccc2ccccc12 (stereo partly shown)
17 | 24% | CC[C@H](C)CNC(=O)C[C@H](O)[C@H](CC(C)C)NC(=O)C(NC(=O)C(Cc1cccc2ccccc12)Cc1cccc2ccccc12)C(N)=O (stereo partly shown)
18 | 26% | CC[C@H](C)CNC(=O)C[C@H](O)[C@H](CC(C)C)NC(=O)C(NC(=O)C(Cc1cccc2ccccc12)Cc1cccc2ccccc12)C(=O)NC (stereo partly shown)

Same assay, conditions: read-out: IC50

Row | IC50 | SMILES
19 | 9.6 nM | CC[C@H](C)CNC(=O)C[C@H](O)[C@H](CC(C)C)NC(=O)[C@H](CCCCNC(=S)NC)NC(=O)C(Cc1cccc2ccccc12)Cc1cccc2ccccc12
20 | 29 nM | CCC(C)CNC(=O)C[C@H](O)[C@H](CC(C)C)NC(=O)[C@H](CCCCNC(=O)NC)NC(=O)C(Cc1cccc2ccccc12)Cc1cccc2ccccc12 (stereo partly shown)
21 | 46 nM | CCCCNC(=S)NCCCC[C@H](NC(=O)C(Cc1cccc2ccccc12)Cc1cccc2ccccc12)C(=O)N[C@@H](CC(C)C)[C@@H](O)CC(=O)NC[C@@H](C)CC
22 | 58 nM | CCCCNC(=S)NCCCC[C@H](NC(=O)C(Cc1cccc2ccccc12)Cc1cccc2ccccc12)C(=O)N[C@@H](CC(C)C)[C@@H](O)CC(=O)NCC(C)CC (stereo partly shown)
